# Assay results: PubChem BioAssay (NCI)
#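 GI50 marks 50% less growth. TGI marks complete inhibition of growth.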
# Legend:
# Assay in all cases: DTP human tumour cell line panel, 384-well format
# 786-0 renal = system: 786-0 renal
# A498 renal = system: A498 renal
# A549 NSCLC = system: A549 NSCLC
# ACHN renal = system: ACHN renal
# BT-549 breast = system: BT-549 breast
# CAKI-1 renal = system: CAKI-1 renal
# CCRF-CEM leukemia = system: CCRF-CEM leukemia
# COLO 205 colon = system: COLO 205 colon
# DU-145 prostate = system: DU-145 prostate
# EKVX NSCLC = system: EKVX NSCLC
# HCC-2998 colon = system: HCC-2998 colon
# HCT-116 colon = system: HCT-116 colon
# HCT-15 colon = system: HCT-15 colon
# HL-60(TB) leukemia = system: HL-60(TB) leukemia
# HOP-62 NSCLC = system: HOP-62 NSCLC
# HOP-92 NSCLC = system: HOP-92 NSCLC
# HS 578T breast = system: HS 578T breast
# HT29 colon = system: HT29 colon
# IGROV1 ovarian = system: IGROV1 ovarian
# K-562 leukemia = system: K-562 leukemia
# KM12 colon = system: KM12 colon
# LOX IMVI melanoma = system: LOX IMVI melanoma
# M14 melanoma = system: M14 melanoma
# MALME-3M melanoma = system: MALME-3M melanoma
# MCF7 breast = system: MCF7 breast
# MDA-MB-231 breast = system: MDA-MB-231 breast
# MDA-MB-435 melanoma = system: MDA-MB-435 melanoma
# MDA-MB-468 breast = system: MDA-MB-468 breast
# MOLT-4 leukemia = system: MOLT-4 leukemia
# NCI-H226 lung = system: NCI-H226 lung
# NCI-H23 lung = system: NCI-H23 lung
# NCI-H322M lung = system: NCI-H322M lung
# NCI-H460 NSCLC = system: NCI-H460 NSCLC
# NCI-H522 lung = system: NCI-H522 lung
# NCI/ADR-RES ovarian = system: NCI/ADR-RES ovarian
# OVCAR-3 ovarian = system: OVCAR-3 ovarian
# OVCAR-4 ovarian = system: OVCAR-4 ovarian
# OVCAR-5 ovarian = system: OVCAR-5 ovarian
# OVCAR-8 ovarian = system: OVCAR-8 ovarian
# PC-3 prostate = system: PC-3 prostate
# RPMI-8226 leukemia = system: RPMI-8226 leukemia
# RXF 393 renal = system: RXF 393 renal
# SF-268 CNS = system: SF-268 CNS
# SF-295 CNS = system: SF-295 CNS
# SF-539 CNS = system: SF-539 CNS
# SK-MEL-2 melanoma = system: SK-MEL-2 melanoma
# SK-MEL-28 melanoma = system: SK-MEL-28 melanoma
# SK-MEL-5 melanoma = system: SK-MEL-5 melanoma
# SK-OV-3 ovarian = system: SK-OV-3 ovarian
# SN12C renal = system: SN12C renal
# SNB-19 CNS = system: SNB-19 CNS
# SNB-75 CNS = system: SNB-75 CNS
# SW-620 colon = system: SW-620 colon
# T-47D breast = system: T-47D breast
# TK-10 renal = system: TK-10 renal
# U251 glioblastoma = system: U251 glioblastoma
# UACC-257 melanoma = system: UACC-257 melanoma
# UACC-62 melanoma = system: UACC-62 melanoma
# UO-31 renal = system: UO-31 renal
structure (smiles),measurement,setting,value
C[C@@H]1Cc2c([nH]c3ccccc23)[C@@H](c2c(F)cc(/C=C/C(=O)O)cc2F)N1CC(C)(C)F,GI50,786-0 renal,14.1 µM
same,TGI,786-0 renal,27.7 µM
same,GI50,A498 renal,13.7 µM
same,TGI,A498 renal,32.4 µM
same,GI50,A549 NSCLC,11.6 µM
same,TGI,A549 NSCLC,24.5 µM
same,GI50,ACHN renal,17.7 µM
same,TGI,ACHN renal,35.2 µM
same,GI50,BT-549 breast,15.6 µM
same,TGI,BT-549 breast,29.2 µM
same,GI50,CAKI-1 renal,17.1 µM
same,TGI,CAKI-1 renal,32.7 µM
same,GI50,CCRF-CEM leukemia,13 µM
same,TGI,CCRF-CEM leukemia,25.8 µM
same,GI50,COLO 205 colon,17.7 µM
same,TGI,COLO 205 colon,39.3 µM
same,GI50,DU-145 prostate,15.9 µM
same,TGI,DU-145 prostate,35.5 µM
same,GI50,EKVX NSCLC,15.6 µM
same,TGI,EKVX NSCLC,31.4 µM
same,GI50,HCC-2998 colon,15.3 µM
same,TGI,HCC-2998 colon,28.7 µM
same,GI50,HCT-116 colon,14.7 µM
same,TGI,HCT-116 colon,28.3 µM
same,GI50,HCT-15 colon,14.3 µM
same,TGI,HCT-15 colon,27.8 µM
same,GI50,HL-60(TB) leukemia,17 µM
same,TGI,HL-60(TB) leukemia,30.8 µM
same,GI50,HOP-62 NSCLC,10.2 µM
same,TGI,HOP-62 NSCLC,22.1 µM
same,GI50,HOP-92 NSCLC,14.5 µM
same,TGI,HOP-92 NSCLC,28 µM
same,GI50,HS 578T breast,14 µM
same,TGI,HS 578T breast,27 µM
same,GI50,HT29 colon,15.2 µM
same,TGI,HT29 colon,28.8 µM
same,GI50,IGROV1 ovarian,16.4 µM
same,TGI,IGROV1 ovarian,31.4 µM
same,GI50,K-562 leukemia,15.4 µM
same,TGI,K-562 leukemia,29.3 µM
same,GI50,KM12 colon,16.5 µM
same,TGI,KM12 colon,30.5 µM
same,GI50,LOX IMVI melanoma,17.2 µM
same,TGI,LOX IMVI melanoma,31.2 µM
same,GI50,M14 melanoma,15.7 µM
same,TGI,M14 melanoma,29.3 µM
same,GI50,MALME-3M melanoma,14.5 µM
same,TGI,MALME-3M melanoma,27.9 µM
same,TGI,MCF7 breast,18.9 µM
same,GI50,MDA-MB-231 breast,17.5 µM
same,TGI,MDA-MB-231 breast,31.6 µM
same,GI50,MDA-MB-435 melanoma,18.4 µM
same,TGI,MDA-MB-435 melanoma,32.9 µM
same,GI50,MDA-MB-468 breast,20.4 µM
same,TGI,MDA-MB-468 breast,40.2 µM
same,GI50,MOLT-4 leukemia,11.8 µM
same,TGI,MOLT-4 leukemia,24.1 µM
same,GI50,NCI-H226 lung,17.4 µM
same,TGI,NCI-H226 lung,32.6 µM
same,GI50,NCI-H23 lung,15.4 µM
same,TGI,NCI-H23 lung,29 µM
same,GI50,NCI-H322M lung,17.9 µM
same,TGI,NCI-H322M lung,38.1 µM
same,GI50,NCI-H460 NSCLC,15.3 µM
same,TGI,NCI-H460 NSCLC,29 µM
same,GI50,NCI-H522 lung,16.8 µM
same,TGI,NCI-H522 lung,30.8 µM
same,GI50,NCI/ADR-RES ovarian,16.8 µM
same,TGI,NCI/ADR-RES ovarian,32 µM
same,GI50,OVCAR-3 ovarian,13.3 µM
same,TGI,OVCAR-3 ovarian,26.2 µM
same,GI50,OVCAR-4 ovarian,12.8 µM
same,TGI,OVCAR-4 ovarian,33.5 µM
same,GI50,OVCAR-5 ovarian,19.2 µM
same,TGI,OVCAR-5 ovarian,34.3 µM
same,GI50,OVCAR-8 ovarian,14.9 µM
same,TGI,OVCAR-8 ovarian,28.6 µM
same,GI50,PC-3 prostate,13.4 µM
same,TGI,PC-3 prostate,26.6 µM
same,GI50,RPMI-8226 leukemia,11.4 µM
same,TGI,RPMI-8226 leukemia,23.6 µM
same,GI50,RXF 393 renal,18.5 µM
same,TGI,RXF 393 renal,32.6 µM
same,GI50,SF-268 CNS,16.3 µM
same,TGI,SF-268 CNS,30.9 µM
same,GI50,SF-295 CNS,16.4 µM
same,TGI,SF-295 CNS,30.5 µM
same,GI50,SF-539 CNS,15 µM
same,TGI,SF-539 CNS,28.4 µM
same,GI50,SK-MEL-2 melanoma,19.7 µM
same,TGI,SK-MEL-2 melanoma,34.2 µM
same,GI50,SK-MEL-28 melanoma,17.4 µM
same,TGI,SK-MEL-28 melanoma,31.4 µM
same,GI50,SK-MEL-5 melanoma,13.9 µM
same,TGI,SK-MEL-5 melanoma,27.2 µM
same,GI50,SK-OV-3 ovarian,19.4 µM
same,TGI,SK-OV-3 ovarian,39.2 µM
same,GI50,SN12C renal,17.3 µM
same,TGI,SN12C renal,32.3 µM
same,GI50,SNB-19 CNS,15.5 µM
same,TGI,SNB-19 CNS,32.2 µM
same,GI50,SNB-75 CNS,17.5 µM
same,TGI,SNB-75 CNS,33.1 µM
same,GI50,SW-620 colon,16 µM
same,TGI,SW-620 colon,29.7 µM
same,GI50,T-47D breast,10.7 µM
same,TGI,T-47D breast,32.5 µM
same,GI50,TK-10 renal,17.7 µM
same,TGI,TK-10 renal,35.2 µM
same,GI50,U251 glioblastoma,11.9 µM
same,TGI,U251 glioblastoma,24.4 µM
same,GI50,UACC-257 melanoma,17.9 µM
same,TGI,UACC-257 melanoma,33.4 µM
same,GI50,UACC-62 melanoma,15.7 µM
same,TGI,UACC-62 melanoma,29.4 µM
same,GI50,UO-31 renal,13.9 µM
same,TGI,UO-31 renal,27.1 µM
